Read-outs that look alike come from different tables or passages of the source. Peptide text beside a SMILES is read from it. * marks the point of attachment. AMC = Cc1cc(=O)oc2cc(N*)ccc12; Boc = CC(C)(C)OC(=O)*
How the values were obtained:
Type in all cases: biochemical, S. cerevisiae
[1] = target: T1, KEX2 endopeptidase (kex2[YEp24-pJ2B] membranes) (Saccharomyces cerevisiae, UniProt P13134); assay: Endopeptidase activity in membranes from kex2 cells carrying multicopy plasmid pJ2B (over-produced specific endopeptidase); conditions: for Relative Ratio: kex2[YEp24-pJ2B] relative to kex2[YEp24] = [1.0]; for Rate of hydrolysis, membranes from kex2 cells carrying pJ2B versus membranes from kex2 cells carrying YEp24 / Rate of hydrolysis (in words): membrane fractions; for Rate of hydrolysis, membranes from kex2 cells carrying pJ2B versus membranes from kex2 cells carrying YEp24: depending on the experiment; for Rate of hydrolysis (in words): endopeptidase substrates containing single arginine residues
T1 construct: not only includes the KEX2 gene, but also the necessary transcriptional and translational regulatory signals for expression in yeast; expressed in transfected cells; host or cells: S. cerevisiae XBH16-15A (MATalpha kex2-1) carrying YEp24-pJ2B
T1 sequence (P13134 114-814): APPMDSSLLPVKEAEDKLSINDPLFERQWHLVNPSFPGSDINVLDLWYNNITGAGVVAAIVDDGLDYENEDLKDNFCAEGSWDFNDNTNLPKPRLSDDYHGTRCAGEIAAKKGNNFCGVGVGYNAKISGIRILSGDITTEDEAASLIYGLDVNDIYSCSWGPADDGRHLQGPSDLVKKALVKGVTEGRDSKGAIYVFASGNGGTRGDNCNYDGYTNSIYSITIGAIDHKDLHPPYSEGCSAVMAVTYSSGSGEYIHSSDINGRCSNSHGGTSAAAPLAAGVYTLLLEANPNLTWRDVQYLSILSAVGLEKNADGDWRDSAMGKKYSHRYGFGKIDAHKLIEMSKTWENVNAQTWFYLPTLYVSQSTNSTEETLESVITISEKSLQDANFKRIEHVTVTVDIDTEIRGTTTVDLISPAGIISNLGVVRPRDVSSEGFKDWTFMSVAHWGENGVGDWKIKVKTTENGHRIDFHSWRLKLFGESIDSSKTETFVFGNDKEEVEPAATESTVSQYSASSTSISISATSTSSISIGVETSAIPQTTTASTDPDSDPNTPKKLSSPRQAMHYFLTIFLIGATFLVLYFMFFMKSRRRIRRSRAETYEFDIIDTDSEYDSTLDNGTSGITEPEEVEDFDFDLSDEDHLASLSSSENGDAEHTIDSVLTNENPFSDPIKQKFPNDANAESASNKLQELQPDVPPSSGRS
Protocol: (§1) Permeabilization of whole yeast cells with the non-ionic detergent Brij 58, preparation of crude membrane fractions, and measurement of protein concentration were conducted by the methods described previously (Julius et al., 1983, supra), incorporated herein by reference. To measure peptidase activity, samples of permeabilized cells or membrane material were added to a reaction mixture containing 0.1-0.5 mM fluorogenic peptide substrate (added from a 20 mM stock dissolved in DMSO) and 200 mM HEPES-Tris (pH 7.0), in a final volume of 0.4 ml. Following incubation for 30 min at 37° C., whole cells were removed by centrifugation in a microfuge (Eppendorf) and membrane material was removed by Ba(OH)2 -ZnSO4 precipitation. The amount of fluorescence formed in the supernatant solution was determined in a fluorescence spectrophotometer (Perkin-Elmer, Model MPF-44B), set either at an excitation wavelength of 335 nm and an emission wavelength of 410 nm (for measurement of β-naphthylamine) or at an excitation wavelength of 380 nm and an emission wavelength of 460 nm (for measurement of 7-amino-4-methyl-coumarin, AMC). To determine the number of moles of substrate hydrolyzed, the fluorescence yield of samples was compared to a standard curve prepared with known concentrations of authentic AMC dissolved in the same buffer.
(§2) Cells of strain XBH1615A that had been transformed with the plasmids
(§3) indicated, or that contained pJ2B in integrated form, were grown in SCUra
(§4) and membranes were prepared as described in the Experimental.
(§5) Endopeptidase activity was assayed as described in the Experimental. All
(§6) substrates tested were present at 0.1 mM.
(§7) Endopeptidase activity was assayed using Boc--GlnArgArg--MCA as the
(§8) substrate, as outlined in the Experimental. All inhibitors were added fro
a 0.1 M stock dissolved in dimethyl sulfoxide.

[2] = target: T2, KEX2 endopeptidase (kex2::pJ2B membranes) (Saccharomyces cerevisiae, UniProt P13134); assay: Endopeptidase activity in membranes from kex2 cells containing pJ2B in integrated form; conditions: for Relative Ratio: kex2::pJ2B relative to kex2[YEp24] = [1.0]
T2 construct: not only includes the KEX2 gene, but also the necessary transcriptional and translational regulatory signals for expression in yeast; expressed in transfected cells; host or cells: S. cerevisiae XBH16-15A (MATalpha kex2-1) containing pJ2B in integrated form; crude membranes
Protocol: as §1, §2, §3, §4, §5, §6, §7, §8
(§9) a 0.1 M stock dissolved in dimethyl sulfoxide. All values given were
(§10) corrected for the slight effects of addition of this solvent alone.

[3] = system: background activity in membranes of kex2[YEp24] cells; assay: Endopeptidase activity in membranes from kex2 cells transformed with the vector YEp24 alone (background activity); conditions: for Susceptibility of the background activity to inhibition: kex2 cells transformed with YEp24 alone
Protocol: as §1, §2, §3, §4, §5, §6, §7, §8, §9, §10

[4] = kex2 cells transformed with plasmid pJ2B, comparisons are to the background activity
[5] = strain kex2[YEp24-pJ2B], substrate 0.1 mM, membranes
[6] = strain kex2::pJ2B, substrate 0.1 mM, membranes
[7] = strain kex2[YEp24], substrate 0.1 mM, membranes
[8] = kex2[YEp24-pJ2B], inhibitor 1 mM, substrate Boc-GlnArgArg-MCA
[9] = kex2[YEp24-pJ2B], inhibitor 5 mM, substrate Boc-GlnArgArg-MCA
[10] = kex2::pJ2B, inhibitor 1 mM, substrate Boc-GlnArgArg-MCA
[11] = kex2::pJ2B, inhibitor 5 mM, substrate Boc-GlnArgArg-MCA
[12] = kex2[YEp24], inhibitor 1 mM, substrate Boc-GlnArgArg-MCA
[13] = kex2[YEp24], inhibitor 5 mM, substrate Boc-GlnArgArg-MCA

`C[S+](C)[O-]` [dimethyl sulfoxide] was tested, and the “Susceptibility of the specific KEX2 endopeptidase to inhibition or inactivation” value (“Susceptibility … to inhibition or inactivation” for short) [1, 4] was “much less sensitive to inactivation”.
`NC(=O)CI` [iodoacetamide] was tested, and the “Susceptibility … to inhibition or inactivation” value [1, 4] was “more susceptible to inhibition”.
`Cc1cc(=O)oc2cc(NC(=O)[C@@H](N)CCCNC(=N)N)ccc12` [Arg--MCA, Arg-MCA] was tested, and the “Relative Ratio” value ([1]; substrate 0.1 mM) was 2.1, the “Rate of hydrolysis, membranes from kex2 cells carrying pJ2B versus membranes from kex2 cells carrying YEp24” value [1] was “no significant increase” and the “Specific Activity” value [1, 5] was 14.0 pmoles AMC formed/μg protein 10. For the same molecule, the “Relative Ratio” value ([2]; substrate 0.1 mM) was 1.2, the “Specific Activity” value [2, 6] was 8.0 pmoles AMC formed/μg protein 10 and the “Specific Activity” value [3, 7] was 6.7 pmoles AMC formed/μg protein 10.
For `NC=O` [formamide], the “Susceptibility … to inhibition or inactivation” value [1, 4] was “much less sensitive to inactivation”.
With `CC[C@H](C)[C@H](NC(=O)OC(C)(C)C)C(=O)N[C@@H](CCC(=O)O)C(=O)NCC(=O)N[C@@H](CCCNC(=N)N)C(=O)Nc1ccc2c(C)cc(=O)oc2c1` [Boc--IleGluGlyArg--MCA, Boc-IleGluGlyArg-MCA] (Boc-IEGR-{AMC}) the “Relative Ratio” value ([1]; substrate 0.1 mM) was 19.3, the “Rate of hydrolysis (in words)” value [1] was “negligible rates” and the “Specific Activity” value [1, 5] was 5.8 pmoles AMC formed/μg protein 10. For the same molecule, the “Relative Ratio” value ([2]; substrate 0.1 mM) was 3.0, the “Specific Activity” value [2, 6] was 0.9 pmoles AMC formed/μg protein 10 and the “Specific Activity” value [3, 7] was 0.3 pmoles AMC formed/μg protein 10.
For `Cc1ccc(S(=O)(=O)NC(Cc2ccccc2)C(=O)CCl)cc1` (centres unmarked) [TPCK, tosyl-phenylalanine-chloromethylketone], the “Specific Activity” value [1, 8] was 105.9 pmoles/μg/10 min, the inhibition at 1000 µM [1, 8] was 2% and the “Specific Activity” value [1, 9] was 109.2 pmoles/μg/10 min. For the same molecule, the inhibition at 5000 µM [1, 9] was 0%, the “Susceptibility … to inhibition or inactivation” value [1, 4] was “completely resistant” and the inhibition at 1000 µM [2] was 18%. For the same molecule, the inhibition at 5000 µM [2] was 13%, the “Specific Activity” value [2, 10] was 14.3 pmoles/μg/10 min and the “Specific Activity” value [2, 11] was 15.2 pmoles/μg/10 min. For the same molecule, the Inhibition [3, 12] was 57%, the “Specific Activity” value [3, 12] was 2.2 pmoles/μg/10 min and the Inhibition [3, 13] was 73%. For the same molecule, the “Specific Activity” value [3, 13] was 1.4 pmoles/μg/10 min and the “Susceptibility of the background activity to inhibition” value [3] was “sensitive to inhibition”.
For `O=S(=O)(F)Cc1ccccc1` [PMSF, phenylmethylsulfonyl fluoride], the Inhibition [1, 8] was 0%, the “Specific Activity” value [1, 8] was 116.7 pmoles/μg/10 min and the Inhibition [1, 9] was 0%. The “Specific Activity” value [1, 9] was 110.2 pmoles/μg/10 min, the “Susceptibility … to inhibition or inactivation” value [1, 4] was “completely resistant” and the Inhibition [2, 10] was 17%. The “Specific Activity” value [2, 10] was 14.4 pmoles/μg/10 min, the Inhibition [2, 11] was 16% and the “Specific Activity” value [2, 11] was 14.7 pmoles/μg/10 min. The Inhibition [3, 12] was 45%, the “Specific Activity” value [3, 12] was 2.8 pmoles/μg/10 min and the Inhibition [3, 13] was 71%. The “Specific Activity” value [3, 13] was 1.5 pmoles/μg/10 min and the “Susceptibility of the background activity to inhibition” value [3] was “sensitive to inhibition”.
With `Cc1cc(=O)oc2cc(NC(=O)[C@@H](N)CC(C)C)ccc12` [Leu--MCA, Leu-MCA] the “Relative Ratio” value ([1]; substrate 0.1 mM) was 2.1, the “Rate of hydrolysis, membranes from kex2 cells carrying pJ2B versus membranes from kex2 cells carrying YEp24” value [1] was “no significant increase” and the “Specific Activity” value [1, 5] was 69.8 pmoles AMC formed/μg protein 10. The “Relative Ratio” value ([2]; substrate 0.1 mM) was 1.1, the “Specific Activity” value [2, 6] was 37.9 pmoles AMC formed/μg protein 10 and the “Specific Activity” value [3, 7] was 33.7 pmoles AMC formed/μg protein 10.
With `Cc1ccc(S(=O)(=O)NC(CCCCN)C(=O)CCl)cc1` (centres unmarked) [TLCK, tosyl-lysine-chloromethylketone] the “Specific Activity” value [1, 8] was 100.8 pmoles/μg/10 min, the inhibition at 1000 µM [1, 8] was 7% and the “Specific Activity” value [1, 9] was 95.5 pmoles/μg/10 min. The inhibition at 5000 µM [1, 9] was 12%, the “Susceptibility … to inhibition or inactivation” value [1, 4] was “completely resistant” and the inhibition at 1000 µM [2] was 16%. For the same molecule, the inhibition at 5000 µM [2] was 17%, the “Specific Activity” value [2, 10] was 14.6 pmoles/μg/10 min and the “Specific Activity” value [2, 11] was 14.5 pmoles/μg/10 min. The Inhibition [3, 12] was 55%, the “Specific Activity” value [3, 12] was 2.3 pmoles/μg/10 min and the Inhibition [3, 13] was 65%. The “Specific Activity” value [3, 13] was 1.8 pmoles/μg/10 min and the “Susceptibility of the background activity to inhibition” value [3] was “sensitive to inhibition”.
For `Cc1cc(=O)oc2cc(NC(=O)[C@H](CCCNC(=N)N)NC(=O)c3ccccc3)ccc12` [Bz--Arg--MCA, Bz-Arg-MCA], the “Relative Ratio” value ([1]; substrate 0.1 mM) was 6.0, the “Rate of hydrolysis (in words)” value [1] was “negligible rates” and the “Specific Activity” value [1, 5] was 0.6 pmoles AMC formed/μg protein 10. For the same molecule, the “Relative Ratio” value ([2]; substrate 0.1 mM) was 1.0, the “Specific Activity” value [2, 6] was 0.1 pmoles AMC formed/μg protein 10 and the “Specific Activity” value [3, 7] was 0.1 pmoles AMC formed/μg protein 10.
With `Cc1cc(=O)oc2cc(NC(=O)[C@H](CCCNC(=N)N)NC(=O)[C@H](CO)NC(=O)[C@H](Cc3ccccc3)NC(=O)OC(C)(C)C)ccc12` [Boc--PheSerArg--MCA, Boc-PheSerArg-MCA] (Boc-Phe-Ser-Arg-{AMC}) the “Relative Ratio” value ([1]; substrate 0.1 mM) was 51.7, the “Rate of hydrolysis relative to Boc-GlnArgArg-MCA, times more slowly” value ([1]; membrane fractions of kex2 cells carrying pJ2B) was “about three times more slowly” and the “Specific Activity” value [1, 5] was 31.0 pmoles AMC formed/μg protein 10. For the same molecule, the “Relative Ratio” value ([2]; substrate 0.1 mM) was 6.3, the “Specific Activity” value [2, 6] was 3.8 pmoles AMC formed/μg protein 10 and the “Specific Activity” value [3, 7] was 0.6 pmoles AMC formed/μg protein 10.
For `CO` [methanol], the “Susceptibility … to inhibition or inactivation” value [1] was “much less sensitive to inactivation”.
For `O=C(O)CI` [iodoacetic acid], the “Susceptibility … to inhibition or inactivation” value [1] was “more susceptible to inhibition”.
